Measured values as given in article PMC11530689, “Anti colorectal cancer activity and in silico studies of novel pyridine nortopsentin analog as cyclin dependent kinase 6 inhibitor” (Scientific Reports, 2024).

Key:
Assay in all cases: NCI 60 cell line screen
[1] = test system: HCT-116; type: cell-based, human; details: HCT-116, Colon Cancer; single concentration 10^−5 M
Protocol: (§1) The cytotoxic activity of nortopsintin analogs (4a-4j) was determined by the national cancer institute (NCI, Bethesda, Maryland, USA) against 60 different cancer cell lines at a single concentration of (10^-5 M). For the determination of IC50 value, we used MTT assay kit (Sigma) according to the manufacturer's protocol. HCT-116 cells were seeded into a 96-well plate at a concentration of 20,000 cells/well. After 24 h, the media was aspirated and replaced with serum-free media containing serial dilutions of the 4i compound. […] The percentage of cytotoxicity was calculated using the following equation: % Cytotoxicity = [1 - ([…])] × 100.

[2] = test system: MDA-MB-231/ATCC; type: cell-based; details: Breast Cancer, single concentration 10^−5 M
Protocol: as §1

[3] = test system: OVCAR-4; type: cell-based; details: OVCAR-4, Ovarian Cancer; single concentration 10^−5 M
Protocol: as §1

[4] = test system: OVCAR-5; type: cell-based; details: OVCAR-5, Ovarian Cancer; single concentration 10^−5 M
Protocol: as §1

[5] = test system: HT29; type: cell-based; details: HT29, Colon Cancer; single concentration 10^−5 M
Protocol: as §1

[6] = test system: NCI-H226; type: cell-based; details: NCI-H226, Non-Small Cell Lung Cancer; single concentration 10^−5 M
Protocol: as §1

[7] = test system: U251; type: cell-based; details: U251, CNS Cancer; single concentration 10^−5 M
Protocol: as §1

[8] = test system: DU-145; type: cell-based; details: DU-145, Prostate Cancer; single concentration 10^−5 M
Protocol: as §1

[9] = test system: SK-MEL-28; type: cell-based; details: SK-MEL-28, Melanoma; single concentration 10^−5 M
Protocol: as §1

[10] = test system: MDA-MB-435; type: cell-based; details: MDA-MB-435, Melanoma; single concentration 10^−5 M
Protocol: as §1

[11] = test system: LOX IMVI; type: cell-based; details: Melanoma, single concentration 10^−5 M
Protocol: as §1

[12] = test system: HL-60 (TB); type: cell-based; details: Leukemia, single concentration 10^−5 M
Protocol: as §1

[13] = test system: UACC-62; type: cell-based; details: UACC-62, Melanoma; single concentration 10^−5 M
Protocol: as §1

[14] = test system: UACC-257; type: cell-based; details: UACC-257, Melanoma; single concentration 10^−5 M
Protocol: as §1

[15] = test system: RPMI-8226; type: cell-based; details: RPMI-8226, Leukemia; single concentration 10^−5 M
Protocol: as §1

[16] = test system: 786-0; type: cell-based; details: 786-0, Renal Cancer; single concentration 10^−5 M
Protocol: as §1

[17] = test system: NCI-H460; type: cell-based; details: NCI-H460, Non-Small Cell Lung Cancer; single concentration 10^−5 M
Protocol: as §1

[18] = test system: BT-549; type: cell-based; details: BT-549, Breast Cancer; single concentration 10^−5 M
Protocol: as §1

[19] = test system: M14; type: cell-based; details: M14, Melanoma; single concentration 10^−5 M
Protocol: as §1

[20] = test system: T-47D; type: cell-based; details: Breast Cancer, single concentration 10^−5 M
Protocol: as §1

[21] = test system: NCI-H322M; type: cell-based; details: Non-Small Cell Lung Cancer, single concentration 10^−5 M
Protocol: as §1

[22] = test system: A549/ATCC; type: cell-based; details: Non-Small Cell Lung Cancer, single concentration 10^−5 M
Protocol: as §1

[23] = test system: HCC-2998; type: cell-based; details: HCC-2998, Colon Cancer; single concentration 10^−5 M
Protocol: as §1

[24] = test system: HS 578T; type: cell-based; details: Breast Cancer, single concentration 10^−5 M
Protocol: as §1

[25] = test system: PC-3; type: cell-based; details: PC-3, Prostate Cancer; single concentration 10^−5 M
Protocol: as §1

[26] = test system: SF-295; type: cell-based; details: SF-295, CNS Cancer; single concentration 10^−5 M
Protocol: as §1

[27] = test system: SK-MEL-2; type: cell-based; details: SK-MEL-2, Melanoma; single concentration 10^−5 M
Protocol: as §1

[28] = test system: COLO205; type: cell-based; details: COLO205, Colon Cancer; single concentration 10^−5 M
Protocol: as §1

[29] = test system: MOLT-4; type: cell-based; details: MOLT-4, Leukemia; single concentration 10^−5 M
Protocol: as §1

[30] = test system: CAKI-1; type: cell-based; details: CAKI-1, Renal Cancer; single concentration 10^−5 M
Protocol: as §1

[31] = test system: SNB-75; type: cell-based; details: SNB-75, CNS Cancer; single concentration 10^−5 M
Protocol: as §1

[32] = test system: RXF 393; type: cell-based; details: RXF 393, Renal Cancer; single concentration 10^−5 M
Protocol: as §1

[33] = test system: TK-10; type: cell-based; details: TK-10, Renal Cancer; single concentration 10^−5 M
Protocol: as §1

[34] = test system: NCI-H522; type: cell-based; details: NCI-H522, Non-Small Cell Lung Cancer; single concentration 10^−5 M
Protocol: as §1

[35] = test system: SK-OV-3; type: cell-based; details: SK-OV-3, Ovarian Cancer; single concentration 10^−5 M
Protocol: as §1

[36] = test system: NCI-H23; type: cell-based; details: NCI-H23, Non-Small Cell Lung Cancer; single concentration 10^−5 M
Protocol: as §1

[37] = test system: MDA-MB-468; type: cell-based; details: MDA-MB-468, Breast Cancer; single concentration 10^−5 M
Protocol: as §1

Molecule `CN(C)c1ccc(-c2cc(-c3c[nH]c4ccccc34)nc(-c3c[nH]c4ccccc34)c2C#N)cc1` [4i] has a Growth % [1] of 57.78%, a Growth % [2] of 99.81% and a Growth % [3] of 95.26%. The Growth % [4] was 102.79%, the Growth % [5] was 63.02% and the Growth % [6] was 79.62%. The Growth % [7] was 92.50%, the Growth % [8] was 99.65% and the Growth % [9] was 101.89%. It also gave a Growth % [10] of 81.62%, a Growth % [11] of 70.02% and a Growth % [12] of 85.35%. The Growth % [13] was 85.78%, the Growth % [14] was 101.12% and the Growth % [15] was 69.39%. It also gave a Growth % [16] of 99.08%, a Growth % [17] of 60.31% and a Growth % [18] of 103.60%. For the same molecule, the Growth % [19] was 97.66%, the Growth % [20] was 95.86% and the Growth % [21] was 92.92%. It also gave a Growth % [22] of 89.56%, a Growth % [23] of 88.23% and a Growth % [24] of 104.13%. For the same molecule, the Growth % [25] was 89.56%, the Growth % [26] was 79.83% and the Growth % [27] was 102.08%. The Growth % [28] was 91.18%, the Growth % [29] was 98.39% and the Growth % [30] was 68.37%. For the same molecule, the Growth % [31] was 86.73%, the Growth % [32] was 106.90% and the Growth % [33] was 107.28%. The Growth % [34] was 93.15%, the Growth % [35] was 94.88% and the Growth % [36] was 88.40%. It also gave a Growth % [37] of 81.79%.
`COc1cc(OC)cc(-c2cc(-c3c[nH]c4ccccc34)nc(-c3c[nH]c4ccccc34)c2C#N)c1` [4f] gave a Growth % [1] of 100.81%, a Growth % [2] of 100.79% and a Growth % [3] of 101.53%. The Growth % [4] was 108.89%, the Growth % [5] was 108.12% and the Growth % [6] was 87.28%. The Growth % [7] was 99.96%, the Growth % [8] was 101.42% and the Growth % [9] was 100.94%. It also gave a Growth % [10] of 99.41%, a Growth % [11] of 82.70% and a Growth % [12] of 101.74%. The Growth % [13] was 93.55%, the Growth % [14] was 112.07% and the Growth % [15] was 98.96%. The Growth % [16] was 104.74%, the Growth % [17] was 103.37% and the Growth % [18] was 103.60%. For the same molecule, the Growth % [19] was 94.97%, the Growth % [20] was 98.31% and the Growth % [21] was 104.89%. For the same molecule, the Growth % [22] was 98.51%, the Growth % [23] was 112.62% and the Growth % [24] was 102.35%. It also gave a Growth % [25] of 93.60%, a Growth % [26] of 101.07% and a Growth % [27] of 88.37%. For the same molecule, the Growth % [28] was 110.17%, the Growth % [29] was 98.62% and the Growth % [30] was 91.03%. The Growth % [31] was 87.63%, the Growth % [32] was 107.63% and the Growth % [33] was 124.45%. The Growth % [34] was 92.06%, the Growth % [35] was 99.89% and the Growth % [36] was 103.68%. For the same molecule, the Growth % [37] was 92.23%.
For `COc1ccc(-c2cc(-c3c[nH]c4ccccc34)nc(-c3c[nH]c4ccccc34)c2C#N)cc1` [4e], the Growth % [1] was 106.07%, the Growth % [2] was 102.65% and the Growth % [3] was 106.10%. It also gave a Growth % [4] of 103.69%, a Growth % [5] of 105.49% and a Growth % [6] of 92.14%. The Growth % [7] was 102.14%, the Growth % [8] was 108.02% and the Growth % [9] was 108.94%. It also gave a Growth % [10] of 104.98%, a Growth % [11] of 86.06% and a Growth % [12] of 106.85%. It also gave a Growth % [13] of 95.53%, a Growth % [14] of 107.78% and a Growth % [15] of 104.41%. The Growth % [16] was 102.90%, the Growth % [17] was 107.18% and the Growth % [18] was 97.48%. For the same molecule, the Growth % [19] was 93.75%, the Growth % [20] was 86.61% and the Growth % [21] was 108.08%. The Growth % [22] was 99.97%, the Growth % [23] was 128.75% and the Growth % [24] was 100.69%. For the same molecule, the Growth % [25] was 89.91%, the Growth % [26] was 95.83% and the Growth % [27] was 100.09%. It also gave a Growth % [28] of 102.89%, a Growth % [29] of 94.10% and a Growth % [30] of 84.47%. It also gave a Growth % [31] of 97.63%, a Growth % [32] of 94.44% and a Growth % [33] of 141.73%. It also gave a Growth % [34] of 92.71%, a Growth % [35] of 94.59% and a Growth % [36] of 103.56%. For the same molecule, the Growth % [37] was 102.09%.
With `N#Cc1c(-c2ccc([N+](=O)[O-])cc2)cc(-c2c[nH]c3ccccc23)nc1-c1c[nH]c2ccccc12` [4h] the Growth % [1] was 100.64%, the Growth % [2] was 96.84% and the Growth % [3] was 99.28%. For the same molecule, the Growth % [4] was 105.31%, the Growth % [5] was 111.20% and the Growth % [6] was 87.03%. It also gave a Growth % [7] of 99.87%, a Growth % [8] of 103.04% and a Growth % [9] of 106.75%. The Growth % [10] was 104.27%, the Growth % [11] was 92.89% and the Growth % [12] was 97.00%. It also gave a Growth % [13] of 85.82%, a Growth % [14] of 104.66% and a Growth % [15] of 95.92%. The Growth % [16] was 106.06%, the Growth % [17] was 100.56% and the Growth % [18] was 108.68%. The Growth % [19] was 97.98%, the Growth % [20] was 88.78% and the Growth % [21] was 95.29%. For the same molecule, the Growth % [22] was 96.38%, the Growth % [23] was 108.98% and the Growth % [24] was 94.79%. It also gave a Growth % [25] of 93.76%, a Growth % [26] of 100.99% and a Growth % [27] of 96.75%. The Growth % [28] was 114.22%, the Growth % [29] was 100.27% and the Growth % [30] was 82.68%. It also gave a Growth % [31] of 90.31%, a Growth % [32] of 111.16% and a Growth % [33] of 142.08%. It also gave a Growth % [34] of 95.41%, a Growth % [35] of 90.72% and a Growth % [36] of 97.26%. For the same molecule, the Growth % [37] was 92.34%.
